This is an account of results in PMC8329432 (Journal of Ethnopharmacology, 2021).

Each structure is given as a SMILES string.

The test deals with GPR35 (Homo sapiens, UniProt Q9HC97). The test can be described thus: label-free dynamic mass redistribution. The format is cell-based. The settings on record: read-out: EC50/IC50; agonist mode; HBSS, 10 mM HEPES, pH 7.4.
Sequence of GPR35 (Q9HC97 whole entry): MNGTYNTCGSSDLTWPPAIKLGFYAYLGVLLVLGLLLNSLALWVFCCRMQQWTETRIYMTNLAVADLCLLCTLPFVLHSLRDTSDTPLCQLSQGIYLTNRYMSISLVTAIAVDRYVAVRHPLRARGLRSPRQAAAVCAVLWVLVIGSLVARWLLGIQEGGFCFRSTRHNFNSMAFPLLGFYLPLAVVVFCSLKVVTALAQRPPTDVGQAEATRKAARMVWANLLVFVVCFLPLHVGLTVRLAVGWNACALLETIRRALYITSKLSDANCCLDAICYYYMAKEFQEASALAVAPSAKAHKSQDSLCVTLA

Take `O=C1c2c(O)cc(O)cc2O[C@H](c2ccc(O)c(O)c2)[C@H]1O` [LCDD-68, taxifolin]: the EC50 was more than 200 µM.
Then `O=C(/C=C/c1ccc(O)c(O)c1)O[C@@H]1[C@H](O)C[C@@](O)(C(=O)O)C[C@H]1OC(=O)/C=C/c1ccc(O)c(O)c1` [LCDD-79, isochlorogenic acid C], with 114 µM.
As for `COc1c(O)cc2occ(-c3ccc(O)cc3)c(=O)c2c1O` [LCDD-41, tectorigenin], the EC50 was more than 200 µM.
As for `O=C(O)[C@H]1O[C@@H](Oc2cc3oc(-c4ccccc4)cc(=O)c3c(O)c2O)[C@H](O)[C@@H](O)[C@@H]1O` [LCDD-117, baicalin], the EC50 is more than 200 µM.
The same measure for `O=C(/C=C/c1ccc(O)cc1)c1ccc(O)cc1O` [LCDD-88, isoliquiritigenin]: more than 200 µM.
Then `COc1c(/C=C/C(=O)c2ccc(O)cc2)ccc(O)c1O` [LCDD-93, licochalcone B], with 25.1 µM.
